Reference: patent US9540299B2, “MTOR-independent activator of TFEB for autophagy enhancement and uses thereof” (Hong Kong Baptist University, priority 2015, dated 2017)

Tests used:
[1] = system: N2a cells; assay: LC3-II levels by western blot in N2a cells (autophagy induction); assay type: cell-based, mouse; details: for LC3-II levels in the presence of chloroquine compared with CQ treatment alone / LC3-II levels compared to the vehicle control: 12 h; for LC3-II levels in the presence of chloroquine compared with CQ treatment alone / LC3-II levels compared to the vehicle control / LC3-II levels in cells depleted of Atg5 by siRNA: analogs 1 μM; for LC3-II levels in the presence of chloroquine compared with CQ treatment alone: CQ 20 μM; for LC3-II levels compared to the vehicle control / LC3-II levels in cells depleted of Atg5 by siRNA: curcumin 10 μM; for LC3-II levels compared to the vehicle control: vs 0.1% DMSO; for LC3-II levels in cells depleted of Atg5 by siRNA: siAtg5 72 h then compound 12 h
Protocol: N2a cells were treated with curcumin (Cur, 10 μM) and its analogs (1 μM) for 12 h (FIG. 2A). N2a cells were treated with Cur (10 μM), analogs A2, B3 and C1 (1 μM) with or without chloroquine (CQ, 20 μM) for 12 h (FIG. 2B). N2a cells were transfected with non-target siRNA (siNT) or Atg5 siRNA (siAtg5, 50 nM) for 72 h and then treated with Cur (10 μM) and analogs A2, B3 and C1 (1 μM) for 12 h (FIG. 2C). The expression of LC3-II is determined by western blot. Relative intensity is normalized to that of ACTB/β-actin. Data are presented as the mean±SD from three independent experiments. *p<0.05 vs. the control (0.1% DMSO); #p<0.05 vs. CQ treatment alone. N. S.=not significant.
(§1) N2a cells are treated with curcumin E series analogs (1 μM) for 12 hours. The expression of LC3-II is shown in Western blot (FIG. 13A). LC3-II relative intensity is normalized to that of ACTB/β-actin. Quantification data (FIG. 13B) are presented as the mean±SD from three independent experiments. *p<0.05 vs. the control (0.1% DMSO).
as §1, with “E2, E3 and E4” for “curcumin E series analogs”, “(1 μM) in the presence or absence of chloroquine (CQ, 20” for “(1”, “14A).” for “13A).”, “14B)” for “13B)”, “DMSO); ^#p<0.05 vs. CQ treatment alone.” for “DMSO).”
as §1, with “E4” for “curcumin E series analogs (1 μM)”, “determined by” for “shown in”, “blotting” for “blot”, “20A).” for “13A).”, “20B)” for “13B)”, “*p<0.05, **p<0.01” for “*p<0.05”
N2a cells are transfected with non-target siRNA (Si-NT) and TFEB siRNA. The levels of TFEB is examined by Western blotting (FIG. 27A) analysis and quantified (FIG. 27B). The effects of knock-down the expression of TFEB on the expression of LC3-II levels induced by E4 (1 μM) is also examined by Western blotting (FIG. 27C). Quantification data are presented as the mean±SD from three independent experiments (FIG. 27D). *p<0.05 vs. the control (0.1% DMSO), # p<0.05 vs. CQ alone.
(§2) N2a, Hela and Hela cells stably expressing 3×-Flag-TFEB are cultured in DMEM supplemented with 10% FBS. SH-SY5Y cells are cultured in DMEM/F12 supplemented with 10% FBS. For drug treatment, the full medium is replaced by fresh Opti-MEM I and then the compounds (in 0.1% DMSO) are added to the cells and incubated for 12 h. Inducible PC12 cells overexpressing SNCA (WT and A53T) (a kind gift from Prof. David C. Rubinsztein at Cambridge University) are grown in DMEM supplemented with 10% horse serum, 5% FBS, 50 μg/ml G418, and 150 μg/ml hygromycin B at 37° C., 10% CO2. Cells are treated with 2 μg/ml doxycycline (Dox) for 24 h to induce SNCA expression. The full medium is changed to Opti-MEM I containing the testing compounds for another 48 h.
Mouse Atg5 siRNA (25 nM) or human TFEB (100 nM) siRNA and the non-target siRNAs are transfected with Lipofectamine RNAiMAX (13778030, Invitrogen) and incubated at 37° C. for 72 h.
Cells are lysed on ice in 1× Lysis Buffer (9803, Life Technologies) with complete protease inhibitor mixture (04693124001, Roche Applied Science). Animal tissues are homogenized in nine volumes of ice-cold PBS supplemented with protease inhibitors. Cytosolic and nuclear fractions are isolated using protocols similar to those described previously. Anti-Flag or TFEB antibody is added to the whole cell lysates and Dynabeads® Protein G (10003D, Life Technologies) is used for immunoprecipitation. Proteins are separated by 10-15% SDS-PAGE, transferred, and blotted with the antibodies described. The blots are then incubated with secondary antibodies or the Clean-Blot IP Detection Reagent (21230, Thermo Scientific) at room temperature for 1 h. The protein signals are detected by ECL kit (32106, Pierce) and quantified using ImageJ software. […]

[2] = system: wild-type (WT) SNCA; assay: Degradation of HA-tagged wild-type SNCA in inducible PC12 cells; assay type: cell-based; details: for degradation of SNCA WT: Dox 24 h then 48 h, curcumin 10 μM, analogs 1 μM
Protocol: (§3) Expression and intensity of HA-tagged wild-type (WT) or A53T mutant SNCA in inducible PC12 cells are treated with doxycycline (Dox, 2 μg/ml) for 24 h, and then treated with curcumin (10 μM), A2, B3 and C1 (1 μM) for another 48 h (A, C) in the presence or absence of chloroquine (CQ, 20 μM) and wortmannin (WM, 1 μM) (B, D). The expression of HA-SNCA is determined by western blots and quantified from three independent experiments. Corynoxine B (Cory B, 25 μM) is used as a positive control. Relative intensity is normalized to that of ACTB/β-actin. Data are presented as the mean±SD from three independent experiments. *p<0.05 vs. the control (0.1% DMSO).
as §2
(§4) Cells are lysed on ice in 1× Lysis Buffer (9803, Life Technologies) with complete protease inhibitor mixture (04693124001, Roche Applied Science). Animal tissues are homogenized in nine volumes of ice-cold PBS supplemented with protease inhibitors. Cytosolic and nuclear fractions are isolated using protocols similar to those described previously. Anti-Flag or TFEB antibody is added to the whole cell lysates and Dynabeads® Protein G (10003D, Life Technologies) is used for immunoprecipitation. Proteins are separated by 10-15% SDS-PAGE, transferred, and blotted with the antibodies described. The blots are then incubated with secondary antibodies or the Clean-Blot IP Detection Reagent (21230, Thermo Scientific) at room temperature for 1 h. The protein signals are detected by ECL kit (32106, Pierce) and quantified using ImageJ software.
(§5) Inducible PC12 cells are treated with doxycycline (Dox, 2 μg/ml) for 24 h to induce the expression of HA-tagged wild-type (WT) or A53T mutant SNCA, and then treated with curcumin (10 μM), A2, B3 and C1 (1 μM) for another 48 h (FIGS. 8 A, C) in the presence or absence of chloroquine (CQ, 20 μM) and wortmannin (WM, 1 μM) (FIGS. 8 B, D). The expression of HA-SNCA is determined by western blots and quantified from three independent experiments. Corynoxine B (Cory B, 25 μM) is used as a positive control. […] Corynoxine B (Cory B) is used as a positive control.

[3] = system: A53T mutant SNCA; assay: Degradation of HA-tagged A53T mutant SNCA in inducible PC12 cells; assay type: cell-based; details: for degradation of SNCA A53T: Dox 24 h then 48 h, curcumin 10 μM, analogs 1 μM
Protocol: as §3, §2, §4, §5

Compound | LC3-II levels in the presence of chloroquine compared with CQ treatment alone [1] | LC3-II levels compared to the vehicle control [1] | degradation of SNCA WT ([2]; inducible PC12 cells) | LC3-II levels in cells depleted of Atg5 by siRNA [1] | degradation of SNCA A53T ([3]; inducible PC12 cells) | further results
O=C(/C=C/c1ccccc1I)/C=C/c1ccccc1I [E4] | further increase | significantly increase | – | – | – | expression of LC3-II, dose-dependent ([1]; 0-1 μM, 12 hours, dose-dependent manner): significantly increase; autophagy-enhancing effect, comparison among E series compounds tested ([1]; 1 μM, 12 hours): best autophagy-enhancing effect; LC3-II levels compared with the control in cells transfected with non-target siRNA ([1]; Si-NT, 1 μM): significantly increases; induced autophagy (LC3-II levels) after knock-down of TFEB ([1]; TFEB siRNA, 1 μM): attenuated
O=C(/C=C/c1ccccc1Br)/C=C/c1ccccc1Br [E3] | further increase | significantly increase | – | – | – | –
COc1cc(/C=C/C(=O)CC(=O)/C=C/c2ccc(O)c(OC)c2)ccc1O [curcumin, Curcumin, reference compound] | – | significantly increase | no effect | failed to increase | promotes the degradation | –
O=C(/C=C/c1ccc(O)cc1)/C=C/c1ccc(O)cc1 [B3, 1,5-bis(4-hydroxyphenyl)penta-1,4-dien-3-one] | further increase | significantly increase | significantly degrade | failed to increase | significantly degrade | –
O=C(/C=C/c1cccc(C(F)(F)F)c1)/C=C/c1cccc(C(F)(F)F)c1 [A2, 1,5-bis(3-(trifluoromethyl)phenyl)penta-1,4-dien-3-one] | further increase | significantly increase | significantly degrade | failed to increase | significantly degrade | –
COc1ccccc1/C=C/C(=O)/C=C/c1ccccc1OC [C1, 1,5-bis(2-methoxyphenyl)penta-1,4-dien-3-one] | further increase | significantly increase | significantly degrade | failed to increase | significantly degrade | activity in degrading SNCA in presence of wortmannin (WM) or CQ ([2]; SNCA WT, WM 1 μM, CQ 20 μM, 1 μM compound): significantly blocked; SNCA clearance, comparison among compounds ([2]; inducible PC12 cells, SNCA WT): best effects; LC3-II levels plus CQ compared with CQ treatment alone in cells transfected with non-target siRNA ([1]; Si-NT, with CQ): further increased; activity in degrading SNCA in presence of wortmannin (WM) or CQ ([3]; SNCA A53T, WM 1 μM, CQ 20 μM, 1 μM compound): significantly blocked; SNCA clearance, comparison among compounds ([3]; inducible PC12 cells, SNCA A53T): best effects
O=C(/C=C/c1ccccc1Cl)/C=C/c1ccccc1Cl [E2] | further increase | significantly increase | – | – | – | –
